Measured values from PMC5047629, “Synthesis, Pharmacological Profile and Docking Studies of New Sulfonamides Designed as Phosphodiesterase-4 Inhibitors” (PLoS ONE, 2016).

What was measured:
[1] = target: T1, PDE1B (Homo sapiens, UniProt Q01064); test: PDE selectivity profile evaluated by CEREP; format: biochemical; settings: 10 μM; data not shown
T1 construct: CEREP
Procedure: (§1) The selectivity profile of compound 6a (LASSBio-448) toward the human PDE1, PDE2, PDE5-PDE8, PDE10 and PDE11 was evaluated by CEREP.

[2] = target: T2, PDE2A (Homo sapiens, UniProt O00408); test: PDE selectivity profile evaluated by CEREP; format: biochemical; settings: 10 μM; data not shown
T2 construct: CEREP
T2 sequence (O00408 whole entry): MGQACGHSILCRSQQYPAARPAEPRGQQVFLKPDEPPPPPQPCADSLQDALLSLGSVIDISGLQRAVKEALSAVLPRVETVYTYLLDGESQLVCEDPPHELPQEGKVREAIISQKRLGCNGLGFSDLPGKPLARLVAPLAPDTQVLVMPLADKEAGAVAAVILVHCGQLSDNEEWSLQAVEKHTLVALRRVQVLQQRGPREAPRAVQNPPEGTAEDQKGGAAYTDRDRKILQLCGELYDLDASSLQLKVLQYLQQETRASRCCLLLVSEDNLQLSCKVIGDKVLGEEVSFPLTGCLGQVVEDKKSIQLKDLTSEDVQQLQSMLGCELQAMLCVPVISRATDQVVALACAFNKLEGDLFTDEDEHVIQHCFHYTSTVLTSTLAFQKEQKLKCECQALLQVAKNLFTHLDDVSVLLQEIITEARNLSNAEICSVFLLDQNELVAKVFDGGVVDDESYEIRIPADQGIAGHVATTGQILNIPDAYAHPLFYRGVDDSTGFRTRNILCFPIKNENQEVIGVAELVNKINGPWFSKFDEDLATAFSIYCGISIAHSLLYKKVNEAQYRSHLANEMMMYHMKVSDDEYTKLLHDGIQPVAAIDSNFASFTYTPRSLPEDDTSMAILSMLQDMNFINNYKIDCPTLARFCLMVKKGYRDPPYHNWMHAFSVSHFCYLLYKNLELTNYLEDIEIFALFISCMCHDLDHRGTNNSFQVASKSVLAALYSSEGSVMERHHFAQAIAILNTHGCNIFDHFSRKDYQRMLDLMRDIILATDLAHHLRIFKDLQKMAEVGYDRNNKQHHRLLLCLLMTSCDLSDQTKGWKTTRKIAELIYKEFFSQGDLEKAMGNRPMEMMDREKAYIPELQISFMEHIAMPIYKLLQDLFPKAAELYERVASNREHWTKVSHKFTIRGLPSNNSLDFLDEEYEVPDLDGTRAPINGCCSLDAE
Procedure: as §1

T1 sequence (Q01064 whole entry): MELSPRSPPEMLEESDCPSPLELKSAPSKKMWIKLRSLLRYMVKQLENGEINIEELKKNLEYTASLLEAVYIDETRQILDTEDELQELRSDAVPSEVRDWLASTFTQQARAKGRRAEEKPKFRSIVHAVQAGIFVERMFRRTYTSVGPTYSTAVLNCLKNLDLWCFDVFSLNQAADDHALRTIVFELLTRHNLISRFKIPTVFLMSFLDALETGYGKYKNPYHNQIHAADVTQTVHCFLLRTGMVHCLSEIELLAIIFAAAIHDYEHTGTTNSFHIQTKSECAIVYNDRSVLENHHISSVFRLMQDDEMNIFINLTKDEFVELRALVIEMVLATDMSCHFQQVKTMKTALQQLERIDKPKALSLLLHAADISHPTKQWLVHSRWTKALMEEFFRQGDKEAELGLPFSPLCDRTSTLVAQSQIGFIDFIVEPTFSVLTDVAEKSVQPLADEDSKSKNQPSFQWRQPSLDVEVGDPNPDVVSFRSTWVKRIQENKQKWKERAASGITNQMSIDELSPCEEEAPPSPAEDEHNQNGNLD

## COc1ccc(CCNS(=O)(=O)c2cc3c(cc2C)OCO3)cc1OC [6a (LASSBio-448), N-(3,4-dimethoxyphenethyl)-6-methylbenzo[d][1, 3]dioxole-5-sulfonamide]
[1]
  inhibition of PDE1B: unable to inhibit
[2]
  inhibition of PDE2A: unable to inhibit
